Results on 2 compounds are retold here after patent publication US20240197739A1 (Sanofi, priority 2021, published 2024).

Where two headings read alike, the source gives them in different places.

This data set relates to subcutaneous MCF7-Y537S human breast cancer cell line xenograft. The note with it: for Tumor volume changes from baseline: Median / Regressions Complete / Regressions Partial / Median % of regressions on day 22 / Unscheduled death (Day of death): PO; for Tumor volume changes from baseline: Median: n = 7; for Anti-tumor effect on tumor growth (statistical significance versus control): two-way ANOVA, contrast analysis; for Regressions Complete: animals with complete regression / group of 7; for Regressions Complete / Regressions Partial / Unscheduled death (Day of death): 22 days; for Regressions Partial: animals with partial regression / group of 7; for ΔT/ΔC in % at day 22: ratio of median tumor volume changes from baseline, treated vs control; for ΔT/ΔC in % at day 22 / Median % of regressions on day 22 / Biological Interpretation: day 22; for Biological Interpretation: based on ΔT/ΔC and statistical analysis; for Unscheduled death (Day of death): deaths / group of 7. As to the method: Anti-tumor efficacy was evaluated by tumor volume measurement.
Female BALB/c nude mice were obtained from Shanghai Sino-British SIPPR/BK Laboratory Animal Co., LTD (Shanghai, CHINA). Animals were allowed to acclimate for at least four days before the study enrollment. Mice were 6 to 8 weeks old and weighed between 18 and 24 grams at the beginning of the treatments. These animals were housed under conditions outlined in the guidelines approved by the Institutional Animal Care and Use Committee (IACUC) of WuXi AppTec following the guidance of the Association for Assessment and Accreditation of Laboratory Animal Care (AAALAC).
Parental MCF7 cells were obtained from the American Type Culture Collection (ATCC® HTB-22™). MCF7-Y537S (ESR1) cell line was MCF7 cells expressing the ER. Y537S variant that was generated by Sanofi Biology Discovery Group. Y537S mutation was introduced in ESR1 construct (GenBank NM_000125.3) by site directed mutagenesis (Toy W. et al., Cancer Discovery, 2017, 7, 277-287). The construct was transfected in MCF7 cells, which were selected for their growth in absence of estradiol. MCF-Y537S is an ESR1 mutation that confers estrogen-independent activity to ERα(Estrogen Receptor alpha) and contributes to endocrine resistant disease (Robinson D.R. et al., Nat Genet., 2013, 45 (12), 1446-1451). The cells were grown in Eagle's Minimum Essential Medium (EMEM) supplemented with 10% fetal bovine serum (FBS), human Insulin, in 5% CO2 at 37° C. The cells were harvested in 0.25% Trypsin EDTA and washed by Phosphate Buffered Saline (PBS) and re-suspended in PBS with 75% Matrigel. The cells (20×10^6 cells/per mouse) were subcutaneously (SC) implanted into the right flank of female nude mice.
When the MCF7-Y537S tumors were established, the tumors were reserved as tumor stocks for fragment implantation. The tumors were serially propagated through fragment tissue transplantation subcutaneously. The fragment tumor tissues were subcutaneously implanted into the right flank of female nude mice. Twenty-eight mice were assigned in this experiment.
The animals required for experiment (plus extra) were pooled and implanted with MCF7-Y537S tumor fragment tissues. […] Animal body weight was assessed daily.
The dosages are expressed in mg/kg and based on daily body weight per animal. Vehicle treated animals were used as controls. Mice were checked daily for adverse clinical reactions. Individual mice were weighed daily until the end of the experiment. Mice would be euthanized when morbid or weight loss ≥20% was observed. Tumors were measured with a caliper twice weekly until final sacrifice. When a tumor size reached approximately 2000 mm^3 or when there are animal health issues (40% area of a tumor ulcerated), animals were euthanized, and date of death recorded. Solid tumor volumes were estimated from two-dimensional tumor measurements and calculated according to the following equation: […]
A dosage producing either 15% body weight loss during 3 consecutive days for an individual mouse, 20% body weight loss during 1 day, or 10% or more drug related deaths, was considered an excessively toxic dosage, unless under certain circumstances bodyweight loss or animal death can be considered non-drug related. […] Animal body weight included the tumor weight.
The primary efficacy end points include tumor volume changes from baseline summarized by the ratio of medians of tumor volume changes from baseline between the treated and control groups (ΔT/ΔC). Changes in tumor volume for each treated (T) and control (C) group were calculated for each animal on each day by subtracting the tumor volume on the day of first treatment (staging day) from the tumor volume on the specified observation day.

Setting [1] is: Day 4, amcenestrant 20 mg/kg BID, ribociclib 100 mg/kg QD.
[2] abbreviates: Day 8, amcenestrant 20 mg/kg BID, ribociclib 100 mg/kg QD.
Where [3] appears, read: Day 11, amcenestrant 20 mg/kg BID, ribociclib 100 mg/kg QD.
Where [4] appears, read: Day 15, amcenestrant 20 mg/kg BID, ribociclib 100 mg/kg QD.
[5] abbreviates: Day 22, amcenestrant 20 mg/kg BID, ribociclib 100 mg/kg QD.
Where [6] appears, read: amcenestrant 20 mg/kg BID, ribociclib 100 mg/kg QD, PO for 22 days.
The mark [7] stands for this setting: amcenestrant 20 mg/kg BID, ribociclib 100 mg/kg QD.
Setting [8] is: PO for 22 days, amcenestrant 20 mg/kg BID, ribociclib 100 mg/kg QD.

In the case of `O=C(O)c1ccc2c(c1)CCCC(c1ccc(Cl)cc1Cl)=C2c1ccc(O[C@H]2CCN(CCCF)C2)cc1` [SAR439859, 6-(2,4-dichlorophenyl)-5-[4-[(3S)-1-(3-fluoropropyl)pyrrolidin-3-yl]oxyphenyl]-8,9-dihydro-7H-benzo[7]annulene-2-carboxylic acid], the “Biological Interpretation” value is listed as “Inactive*”. Besides, the “Tumor volume changes from baseline: Median” value (shortened to “Tumor volume changes”) under setting [1] worked out at 43.0 mm^3. Moreover, the “Tumor volume changes” value under setting [2] stood at 121.0 mm^3. Besides, under setting [3], the “Tumor volume changes” value is recorded as 214.0 mm^3. Also, under setting [4], the “Tumor volume changes” value worked out at 360.0 mm^3. The “Tumor volume changes” value (Day 18, amcenestrant 20 mg/kg BID, ribociclib 100 mg/kg QD) amounted to 392.0 mm^3. Also, the “Tumor volume changes” value under setting [5] was found to be 501.0 mm^3. The “Anti-tumor effect on tumor growth (statistical significance versus control)” value under setting [6] was “no statistically significant anti-tumor effect”. Moreover, under setting [7], the “Regressions Complete” value is on record as 0/7, the “Regressions Partial” value is 0/7, the “Median % of regressions on day 22” value worked out at 0% and the “Unscheduled death (Day of death)” value was 0/7. In addition, under setting [8], the “ΔT/ΔC in % at day 22” value worked out at 47%.

With `CN(C)C(=O)c1cc2cnc(Nc3ccc(N4CCNCC4)cn3)nc2n1C1CCCC1.O=C(O)CCC(=O)O` [ribociclib, 7-cyclopentyl-N,N-dimethyl-2-[[5-(1-piperazinyl)-2-pyridinyl]amino]-7H-pyrrolo[2,3-d]pyrimidine-6-carboxamide], the “Biological Interpretation” value is recorded as “Inactive*”. Also, under setting [1], the “Tumor volume changes” value was 44.0 mm^3. Besides, under setting [2], the “Tumor volume changes” value is reported as 103.0 mm^3. The “Tumor volume changes” value under setting [3] turned out to be 183.0 mm^3. Also, under setting [4], the “Tumor volume changes” value stood at 292.0 mm^3. Moreover, the “Tumor volume changes” value under setting [5] worked out at 423.0 mm^3. Moreover, under setting [6], the Body weight loss entry is listed as “no significant body weight loss”, the Tolerability entry was “well-tolerated” and the “Anti-tumor effect on tumor growth (statistical significance versus control)” value was “no statistically significant anti-tumor efficacy”. Besides, under setting [7], the “Regressions Complete” value was 0/7, the “Regressions Partial” value is 0/7, the “Median % of regressions on day 22” value amounted to 0% and the “Unscheduled death (Day of death)” value is reported as 0/7. Also, the “ΔT/ΔC in % at day 22” value under setting [8] was 40%.
